Reference: US20100022491A1, “4-HYDROXY-2-OXO-2,3-DIHYDRO-1,3-BENZOTHIAZOL-7YL COMPOUNDS FOR MODULATION OF B2-ADRENORECEPTOR ACTIVITY” (ASTRAZENECA AB, priority 2006, published 2010)
Counter-ions that a name gives are not always drawn.

Key:
[1] = biological target: T1, recombinant human α1D receptor (Homo sapiens, UniProt P25100); assay: Adrenergic α1D selectivity binding assay ([3H]-prazosin); settings: inhibition of [3H]-prazosin (0.3 nM) binding, HEK293 membranes; read-out: α1 bind pIC50 (converted)
T1 construct: expressed in transfected cells; host or cells: HEK293
T1 sequence (P25100 1-572): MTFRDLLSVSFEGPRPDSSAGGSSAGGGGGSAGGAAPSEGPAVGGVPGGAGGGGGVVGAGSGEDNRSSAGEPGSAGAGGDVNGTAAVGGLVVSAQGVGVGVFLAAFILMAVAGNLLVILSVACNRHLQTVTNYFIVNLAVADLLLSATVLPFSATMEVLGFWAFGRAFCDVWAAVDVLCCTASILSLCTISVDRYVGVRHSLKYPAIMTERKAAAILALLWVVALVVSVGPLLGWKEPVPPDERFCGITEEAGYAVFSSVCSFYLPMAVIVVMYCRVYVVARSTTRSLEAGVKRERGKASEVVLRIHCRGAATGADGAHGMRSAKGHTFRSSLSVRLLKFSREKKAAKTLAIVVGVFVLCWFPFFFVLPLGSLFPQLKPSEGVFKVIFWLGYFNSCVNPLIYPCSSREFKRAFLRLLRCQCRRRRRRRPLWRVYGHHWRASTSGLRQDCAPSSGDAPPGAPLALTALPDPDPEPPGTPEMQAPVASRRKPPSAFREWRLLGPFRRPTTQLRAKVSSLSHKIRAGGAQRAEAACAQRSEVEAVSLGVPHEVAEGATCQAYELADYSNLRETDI
Method: Membranes were prepared from human embryonic kidney 293 (HEK293) cells expressing recombinant human α1D receptor. These were diluted in Assay Buffer (50 mM HEPES, 1 mM EDTA, 0.1% gelatin, pH 7.4) to provide a final concentration of membranes that gave a clear window between maximum and minimum specific binding.
Assays were performed in U-bottomed 96-well polypropylene plates. 10 μL [^3H]-prazosin (0.3 nM final concentration) and 10 μL of test compound (10× final concentration) were added to each test well. For each assay plate 8 replicates were obtained for [^3H]-prazosin binding in the presence of 10 μL vehicle (10% (v/v) DMSO in Assay Buffer; defining maximum binding) or 10 μL BMY7378 (10 μM final concentration; defining non-specific binding (NSB)). Membranes were then added to achieve a final volume of 100 μL. The plates were incubated for 2 hours at room temperature and then filtered onto PEI coated GF/B filter plates, pre-soaked for 1 hour in Assay Buffer, using a 96-well plate Tomtec cell harvester. Five washes with 250 μL wash buffer (50 mM HEPES, 1 mM EDTA, pH 7.4) were performed at 4° C. to remove unbound radioactivity. The plates were dried then sealed from underneath using Packard plate sealers and MicroScint-O (50 μL) was added to each well. The plates were sealed (TopSeal A) and filter-bound radioactivity was measured with a scintillation counter (TopCount, Packard BioScience) using a 3-minute counting protocol.
(§1) Total specific binding (B0) was determined by subtracting the mean NSB from the mean maximum binding. NSB values were also subtracted from values from all other wells. […] Data was fitted to a four parameter logistic equation to determine the compound potency, which was expressed as pIC50 (negative log molar concentration inducing 50% inhibition of [^3H]-prazosin binding).

[2] = biological target: T2, recombinant human Dopamine Subtype D2s receptors (Homo sapiens, UniProt P14416); assay: Dopamine D2 selectivity binding assay ([3H]-spiperone); settings: inhibition of [3H]-spiperone (0.16 nM) binding; read-out: D2 bind pIC50 (converted)
T2 construct: purchased Perkin Elmer
Method: Membranes containing recombinant human Dopamine Subtype D2s receptors were obtained from Perkin Elmer. These were diluted in Assay Buffer (50 mM HEPES, 1 mM EDTA, 120 mM NaCl, 0.1% gelatin, pH 7.4) to provide a final concentration of membranes that gave a clear window between maximum and minimum specific binding.
Assays were performed in U-bottomed 96-well polypropylene plates. 30 μL [^3H]-spiperone (0.16 nM final concentration) and 30 μL of test compound (10× final concentration) were added to each test well. For each assay plate 8 replicates were obtained for [^3H]-spiperone binding in the presence of 30 μL vehicle (10% (v/v) DMSO in Assay Buffer; defining maximum binding) or 30 μL Haloperidol (10 μM final concentration; defining non-specific binding (NSB)). Membranes were then added to achieve a final volume of 300 μL. The plates were incubated for 2 hours at room temperature and then filtered onto PEI coated GF/B filter plates, pre-soaked for 1 hour in Assay Buffer, using a 96-well plate Tomtec cell harvester. Five washes with 250 μL wash buffer (50 mM HEPES, 1 mM EDTA, 120 mM NaCl, pH 7.4) were performed at 4° C. to remove unbound radioactivity. The plates were dried then sealed from underneath using Packard plate sealers and MicroScint-O (50 μL) was added to each well. The plates were sealed (TopSeal A) and filter-bound radioactivity was measured with a scintillation counter (TopCount, Packard BioScience) using a 3-minute counting protocol.
as §1, with “[^3H]-spiperone” for “[^3H]-prazosin”

T2 sequence (P14416 1-414 isoform P14416-2): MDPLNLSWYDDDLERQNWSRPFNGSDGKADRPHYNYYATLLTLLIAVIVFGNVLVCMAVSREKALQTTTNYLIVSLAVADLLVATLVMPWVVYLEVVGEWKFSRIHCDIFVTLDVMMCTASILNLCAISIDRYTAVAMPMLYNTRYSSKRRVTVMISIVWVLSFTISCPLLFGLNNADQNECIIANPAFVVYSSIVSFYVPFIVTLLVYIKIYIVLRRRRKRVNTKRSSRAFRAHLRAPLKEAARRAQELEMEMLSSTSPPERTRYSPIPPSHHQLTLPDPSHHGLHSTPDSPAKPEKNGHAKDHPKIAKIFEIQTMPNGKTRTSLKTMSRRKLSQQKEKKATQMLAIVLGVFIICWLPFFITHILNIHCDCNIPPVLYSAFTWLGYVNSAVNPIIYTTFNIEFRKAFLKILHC

## O=C(CCNCCc1ccccc1)N(CCNCCc1ccc(O)c2[nH]c(=O)sc12)C1Cc2ccccc2C1 [Example 41, N^1-(2,3-Dihydro-1H-inden-2-yl)-N^1-(2-{[2-(4-hydroxy-2-oxo-2,3-dihydro-1,3-benzothiazol-7-yl)ethyl]amino}ethyl)-N^3-(2-phenylethyl)-β-alaninamide bis-trifluoroacetic acid salt]
[1]
  IC50: 0.0126 µM
[2]
  IC50: 0.2 µM

## O=C(CCNCCc1ccc(F)cc1F)N(CCNCCc1ccc(O)c2[nH]c(=O)sc12)C1CCCCCC1 [Example 55, N^1-Cycloheptyl-N^3-[2-(2,4-difluorophenyl)ethyl]-N^1-(2-{[2-(4-hydroxy-2-oxo-2,3-dihydro-1,3-benzothiazol-7-yl)ethyl]amino}ethyl)-β-alaninamide bis-trifluoroacetic acid salt]
[1]
  IC50: 0.0501 µM
[2]
  IC50: 0.02 µM

## CC(C)(CO)CN(CCNCCc1ccc(O)c2[nH]c(=O)sc12)C(=O)CCNCCc1cccc(Cl)c1 [Example 66, N^3-[2-(3-Chlorophenyl)ethyl]-N^1-(3-hydroxy-2,2-dimethylpropyl)-N^1-(2-{[2-(4-hydroxy-2-oxo-2,3-dihydro-1,3-benzothiazol-7-yl)ethyl]amino}ethyl)-β-alaninamide bis-trifluoroacetic acid salt]
[1]
  IC50: 0.251 µM
[2]
  IC50: 0.631 µM

## O=C(CCNCCc1cccc(O)c1)N(CCNCCc1ccc(O)c2[nH]c(=O)sc12)C1CCCCCC1 [Example 37, N-Cycloheptyl-N-(2-{[2-(4-hydroxy-2-oxo-2,3-dihydro-1,3-benzothiazol-7-yl)ethyl]amino}ethyl)-N^3-[2-(3-hydroxyphenyl)ethyl]-β-alaninamide bis-trifluoroacetic acid salt]
[1]
  IC50: 0.2 µM
[2]
  IC50: 0.398 µM

## O=C(CCNCCc1ccccc1Cl)N(CCNCCc1ccc(O)c2[nH]c(=O)sc12)C1CCCCC1 [Example 17, N^3-[2-(2-Chlorophenyl)ethyl]-N-cyclohexyl-N-(2-{[2-(4-hydroxy-2-oxo-2,3-dihydro-1,3-benzothiazol-7-yl)ethyl]amino}ethyl)-β-alaninamide bis-trifluoroacetic salt]
[1]
  IC50: 0.0501 µM
[2]
  IC50: 0.158 µM

## O=C(CCNCCc1cccc(O)c1)N(CCNCCc1ccc(O)c2[nH]c(=O)sc12)C1CCCCC1 [Example 71, N^1-Cyclohexyl-N^1-(2-{[2-(4-hydroxy-2-oxo-2,3-dihydro-1,3-benzothiazol-7-yl)ethyl]amino}ethyl)-N^3-[2-(3-hydroxyphenyl)ethyl]-β-alaninamide bis-trifluoroacetic acid salt]
[1]
  IC50: 0.2 µM
[2]
  IC50: 0.1 µM

## O=C(CCNCCc1cccc(F)c1)N(CCNCCc1ccc(O)c2[nH]c(=O)sc12)C1CCCCCC1 [Example 36, N-Cycloheptyl-N^3-[2-(3-fluorophenyl)ethyl]-N-(2-{[2-(4-hydroxy-2-oxo-2,3-dihydro-1,3-benzothiazol-7-yl)ethyl]amino}ethyl)-β-alaninamide bis-trifluoroacetic acid salt]
[1]
  IC50: 0.158 µM
[2]
  IC50: 0.2 µM

## O=C(CCNCCc1cccs1)N(CCNCCc1ccc(O)c2[nH]c(=O)sc12)C1CCCCCC1 [Example 52, N^1-Cycloheptyl-N^1-(2-{[2-(4-hydroxy-2-oxo-2,3-dihydro-1,3-benzothiazol-7-yl)ethyl]amino}ethyl)-N^3-[2-(2-thienyl)ethyl]-β-alaninamide bis-trifluoroacetic acid salt]
[1]
  IC50: 0.1 µM
[2]
  IC50: 0.0398 µM

## O=C(CCNCCc1ccc(Cl)c(Cl)c1)N(CCNCCc1ccc(O)c2[nH]c(=O)sc12)C1CCOCC1 [Example 24, N^3-[2-(3,4-Dichlorophenyl)ethyl]-N-(2-{[2-(4-hydroxy-2-oxo-2,3-dihydro-1,3-benzothiazol-7-yl)ethyl]amino}ethyl)-N-(tetrahydro-2H-pyran-4-yl)-β-alaninamide bis-trifluoroacetic acid salt]
[1]
  IC50: 0.631 µM
[2]
  IC50: 0.794 µM

## O=C(NCc1ccccc1)c1ccc(CCNCCC(=O)N(CCNCCc2ccc(O)c3[nH]c(=O)sc23)C2CCCCCC2)cc1 [Example 100, N-Benzyl-4-[2-({3-[cycloheptyl(2-{[2-(4-hydroxy-2-oxo-2,3-dihydro-1,3-benzothiazol-7-yl)ethyl]amino}ethyl)amino]-3-oxopropyl}amino)ethyl]benzamide bis-trifluoroacetic acid salt]
[1]
  IC50: 0.251 µM
[2]
  IC50: 0.0316 µM

## CC(C)(C)CN(CCNCCc1ccc(O)c2[nH]c(=O)sc12)C(=O)CCNCCc1cccc(F)c1 [Example 44, N^1-(2,2-Dimethylpropyl)-N^3-[2-(3-fluorophenyl)ethyl]-N^1-(2-{[2-(4-hydroxy-2-oxo-2,3-dihydro-1,3-benzothiazol-7-yl)ethyl]amino}ethyl)-β-alaninamide bis-trifluoroacetic acid salt]
[1]
  IC50: 0.316 µM
[2]
  IC50: 0.126 µM

## O=C(CCNCCc1cccc(Cl)c1)N(CCNCCc1ccc(O)c2[nH]c(=O)sc12)C1CCOCC1 [Example 22, N^3-[2-(3-Chlorophenyl)ethyl]-N-(2-{[2-(4-hydroxy-2-oxo-2,3-dihydro-1,3-benzothiazol-7-yl)ethyl]amino}ethyl)-N-(tetrahydro-2H-pyran-4-yl)-β-alaninamide bis-trifluoroacetic acid salt]
[1]
  IC50: 0.251 µM
[2]
  IC50: 7.94 µM

## O=C(CCNCCc1cccc(F)c1F)N(CCNCCc1ccc(O)c2[nH]c(=O)sc12)C1CCCCCC1 [Example 56, N^1-Cycloheptyl-N^3-[2-(2,3-difluorophenyl)ethyl]-N^1-(2-{[2-(4-hydroxy-2-oxo-2,3-dihydro-1,3-benzothiazol-7-yl)ethyl]amino}ethyl)-β-alaninamide bis-trifluoroacetic acid salt]
[1]
  IC50: 0.251 µM
[2]
  IC50: 0.0316 µM

## O=C(CCNCCc1ccccc1Cl)N(CCNCCc1ccc(O)c2[nH]c(=O)sc12)C1CCC(F)(F)CC1 [Example 46, N^3-[2-(2-Chlorophenyl)ethyl]-N^1-(4,4-difluorocyclohexyl)-N^1-(2-{[2-(4-hydroxy-2-oxo-2,3-dihydro-1,3-benzothiazol-7-yl)ethyl]amino}ethyl)-β-alaninamide bis-trifluoroacetic acid salt]
[1]
  IC50: 0.158 µM
[2]
  IC50: 0.0398 µM

## O=C(CCNCCc1ccccc1)N(CCNCCc1ccc(O)c2[nH]c(=O)sc12)C1CCSCC1 [Example 62, N-(2-{[2-(4-Hydroxy-2-oxo-2,3-dihydro-1,3-benzothiazol-7-yl)ethyl]amino}ethyl)-N^3-(2-phenylethyl)-N^1-(tetrahydro-2H-thiopyran-4-yl)-β-alaninamide bis-trifluoroacetic acid salt]
[1]
  IC50: 0.0631 µM
[2]
  IC50: 0.398 µM
